# Columns and labels:
# Assay type in all cases: cell-based
# [1] = test system: Trypanosoma brucei Lister 427 strain; test: Assay for proliferation of kinetoplastid parasite Trypanosoma brucei (Cell Titer Glo); details: bloodstream form, 48 hours, read-out: T. brucei EC50
# Description: The proliferation is quantified by the addition of Cell Titer Glo (Promega®) a luminescent cell viability assay that measures the number of viable cells in culture based on the quantification of cellular ATP amount, which is an indicator of metabolically active cells. The following assay illustrates the invention without in any way limiting the scope of the invention. This parasite proliferation assay measures the increase in parasite growth using an assay that measures ATP activity, Cell Titer Glo®.
# Trypanosoma brucei Lister 427 strain is grown in HMI-9 Trypanosome media for T. brucei bloodstream form. 30 μl of HMI-9 media is dispensed into 384 well assay plates. 200 nL of compounds of the invention (in DMSO), including anti-trypanosome controls (Pentamidine and suramin), are then transferred into the assay plates, as well as DMSO alone to serve as a negative control for inhibition. Then 25 μl of a suspension of T. brucei culture in HMI-9 media is dispensed into the assay plates. The final concentration of parasites in culture corresponds to 1.7% of 0.5 uM ATP activity with Cell Titer Glo® in HMI-9 media. The plates are placed in a 37° C. incubator for 48 hours in an atmospheric environment containing 5% CO2. 40 μl of Cell Titer Glo® is dispensed into the plates. The plates are then read for luminescence. The percentage inhibition of 50%, EC50, is calculated for each compound.
# [2] = test system: L. donovani HU3 strain in mouse peritoneal macrophages; test: Proliferation of L. donovani in mouse peritoneal macrophages (SybrGreen, high-content imaging); details: Leishmania donovani, Peritoneal macrophage, 120 h; infected mouse peritoneal macrophages, 5 days; read-out: L. donavani Macrophage EC50
# Description: The activity of a compound according to the present invention for inhibition of parasitemai can be assessed by the parasite proliferation assay. The assay measures the increase in the parasite number in the assayed plate well using a DNA intercalating dye, SYBR Green I® dye (INVITROGEN) to stain Leishmania cell nuclei. It is understood that the assays illustrate the invention without in any way limiting the scope of the invention.
# L. donovani HU3 strain is propagated by infecting BALBc mice through tail vein injection with 10^7 Leishmania parasites. Infected mice are allowed to develop infection during 9-11 weeks post-infection. During this time, the parasites accumulate in the infected mouse spleens to large numbers, and the infected mice serve as the source of parasites for the in vitro measurement of compound efficacies. To assay a compound for anti-leishmanial activity, peritoneal macrophages isolated from non-infected BALBc mice are seeded into 384-well plates at density 2×10^4 macrophages per well in 25 mL of medium (RPMI1640, 10% fetal serum albumin, 10 mM HEPES, 1 mM sodium pyruvate, 1% Pen/Strep). Subsequently, the seeded plates are placed into an incubator set to maintain 37° C. temperature and atmosphere with 5% CO2. The next day, Leishmania parasites are isolated from the spleens of mice infected for 9-11 weeks and 4×10^5 isolated parasites in […] of the above media are added to each plate well. Plates are then returned into incubators and infection is allowed to proceed for 24 hours. After the infection of macrophages is completed, […] of compounds of the invention in the above medium, which also contains 5% DMSO, are added to plate wells containing infected macrophages. At the same time control compounds (miltefosine and amphotericin B) and DMSO are added to plates to serve as the positive and negative controls, respectively. After the compound addition, the plates are returned into incubator and cells infected with parasites are cultured for 5 days. At the end of cultivation, […] of 8% paraformaldehyde is added to plate wells and incubated for 15 min at room temperature. Following the incubation, the paraformaldehyde from plate wells is aspirated, and […] of PBS containing 0.2% Triton X-100 is added to wells. After 15 min incubation, the solution is aspirated from wells again, and replaced with SybrGreen Dye solution in PBS (1:125,000 dilution). Infected cells are imaged with Evotec Opera high-content microscope, and the number of parasites in well is determined by counting parasite nuclei visualized by staining with SybrGreen dye. The percentage inhibition of 50%, EC50, is calculated for each compound.
# The inhibitory efficacy of the compounds of the invention against proliferation of L. donovani in mouse peritoneal macrophages is provided in Table I.
# [3] = test system: Trypanosoma cruzi amastigotes cultured in 3T3 fibroblast cells; test: Assay for proliferation of kinetoplastid parasite Trypanosoma cruzi (beta-galactosidase/CPRG readout); details: NIH3T3, 144 h, Tulahuen strain in 3T3 cells, 6 day incubation, read-out: T cruzi EC50
# Description: Compounds of the invention can be assayed to measure their capacity to inhibit proliferation of kinetoplastid parasite Trypanosoma cruzi. The screening procedure is for identifying compounds with inhibitor activity against Trypanosoma cruzi amastigotes cultured in 3T3 fibroblast cells. The assay is done using the mammalian stage (amastigotes) of T. cruzi that replicates in the intracellular space of host cells. The host cells are initially infected with the culture-derived trypomastigotes that rapidly invade and then divide as amastigotes. The protocol uses the Tulahuen strain of T. cruzi that has been engineered to express the E. coli beta-galactosidase gene (Lac-Z) (Antimicr. Agents Chemoth. 40:2592, 1996). This allows for a colorimetric readout by using the substrate CPRG and an absorbance plate reader.
# 3T3 fibroblast cells are re-suspended in RPMI-1640 medium without phenol red medium supplemented with 10% FBS (heat inactivated), 100 μg/ml penicillin, and 100 μg/ml streptomycin. Forty μL of suspension (1,000 cells) is dispensed into 384-well plates and incubated overnight at 37° C. temperature and in atmosphere containing 5% CO2. The following day, 100 nL of compounds of the invention in DMSO are added to plate wells containing 3T3 cells. At the same time control compounds (benznidazole and nifurtimox) and DMSO are added to plates to serve as the positive and negative controls, respectively. After that, 10 μL of media containing 10,000 T. cruzi trypomastigotes are added to each plate well and plates are placed back into incubators. After 6 day incubation, 10 μL of reagent solution (0.6 mM CPRG, 0.6% NP-40 in PBS) is added to plates and incubated at room temperature for 2 hours. Absorbance is then measured on SpectraMax Gemini fluorimeter to determine relative number of T. cruzi cells present in each plate well. The percentage inhibition of 50%, EC50, is calculated for each compound.
# [4] = test system: Leishmania donovani axenic amastigote parasites; test: Assay for Leishmania proliferation in vitro (axenic amastigotes, Cell TiterGlo); details: 48 h, 2 day incubation, read-out: L. donovani amastigotes EC50
# Method: Leishmania donovani axenic amastigote parasites are grown at 37° C., 5% CO2 in media made of RPMI 1640, 4 mM L-glutamine, 20% heat inactivated FBS, 100 units/ml of penicillin and 100 μg/ml of streptomycin, 23 μM Folic Acid, 100 μM Adenosine, 22 mM D-glucose, 25 mM MES. The pH of media is adjusted to 5.5 at 37° C. using HCl. 20 μL of media is first dispensed into 384 well plates and […] of the compounds of invention in DMSO are added to the plate wells. At the same time control compounds and DMSO are added to plates to serve as the positive and negative controls, respectively. 40 μL of parasite culture (9600 parasites) are then added to the plate wells. The plates are then placed into incubators. After 2 day incubation, 20 μL of Cell TiterGlo (Promega) is added to the plate wells. The luminescence signal of each well is measured using the Envision reader (Perkin Elmer). The percentage inhibition of 50%, EC50, is calculated for each of the compounds.
SMILES,EC50 [1] [nM],EC50 [2] [nM],EC50 [3] [nM],EC50 [4] [nM]
"CC(C)OC(=O)Nc1cnc2nc(-c3cc(NC(=O)c4ccco4)ccc3Cl)[nH]c2c1 [Example 2, propan-2-yl N-{2-[2-chloro-5-(furan-2-amido)phenyl]-1H-imidazo[4,5-b]pyridin-6-yl}carbamate]",39,315,142,190
"CCOC(=O)Nc1cnc2nc(-c3cccc(NC(=O)c4ccc(F)o4)c3)[nH]c2c1 [Example 3, ethyl N-{2-[3-(5-fluorofuran-2-amido)phenyl]-1H-imidazo[4,5-b]pyridin-6-yl}carbamate]",230,2470,2230,7700
"CCOC(=O)Nc1cnc2nc(-c3cc(NC(=O)c4ccco4)ccc3Cl)[nH]c2c1 [Example 6, ethyl N-{2-[2-chloro-5-(furan-2-amido)phenyl]-1H-imidazo[4,5-b]pyridin-6-yl}carbamate]",34,1420,,580
"COC(=O)Nc1cnc2nc(-c3cc(NC(=O)c4ccco4)ccc3Cl)[nH]c2c1 [Example 9, methyl N-{2-[2-chloro-5-(furan-2-amido)phenyl]-1H-imidazo[4,5-b]pyridin-6-yl}carbamate]",143,2480,,950
"CC(C)(COC(=O)Nc1cnc2nc(-c3cc(NC(=O)c4ccco4)ccc3Cl)[nH]c2c1)NC(=O)OC(C)(C)C [Example 15, tert-butyl N-{1-[({2-[2-chloro-5-(furan-2-amido)phenyl]-1H-imidazo[4,5-b]pyridin-6-yl}carbamoyl)oxy]-2-methylpropan-2-yl}carbamate]",640,8700,1850,5100
"O=C(Nc1ccc(Cl)c(-c2nc3ncc(NC(=O)C(O)CO)cc3[nH]2)c1)c1ccco1 (centres unmarked) [Example 18, N-{4-chloro-3-[6-(2,3-dihydroxypropanamido)-1H-imidazo[4,5-b]pyridin-2-yl]phenyl}furan-2-carboxamide]",1720,16900,,8900
"Nc1cnc2nc(-c3cc(NC(=O)c4ccco4)ccc3Cl)[nH]c2c1 [Example 20, N-(3-{6-amino-1H-imidazo[4,5-b]pyridin-2-yl}-4-chlorophenyl)furan-2-carboxamide]",1380,18900,4700,13600
"O=C(Nc1cccnc1)Nc1cnc2nc(-c3cc(NC(=O)c4ccco4)ccc3Cl)[nH]c2c1 [Example 21, N-[4-chloro-3-(6-{[(pyridin-3-yl)carbamoyl]amino}-1H-imidazo[4,5-b]pyridin-2-yl)phenyl]furan-2-carboxamide]",1590,> 50000,> 20000,17700
"CC(C)(CO)C(=O)Nc1cnc2nc(-c3cc(NC(=O)c4ccco4)ccc3Cl)[nH]c2c1 [Example 22, N-{4-chloro-3-[6-(3-hydroxy-2,2-dimethylpropanamido)-1H-imidazo[4,5-b]pyridin-2-yl]phenyl}furan-2-carboxamide]",760,> 50000,,20700
"O=C(Nc1cnc2nc(-c3cc(NC(=O)c4ccco4)ccc3Cl)[nH]c2c1)OCCF [Example 53, 2-fluoroethyl N-{2-[2-chloro-5-(furan-2-amido)phenyl]-1H-imidazo[4,5-b]pyridin-6-yl}carbamate]",,1740,3200,1310
"CS(=O)(=O)Nc1ccc(Cl)c(-c2nc3ncc(NS(C)(=O)=O)cc3[nH]2)c1 [Example 58, N-[2-(2-chloro-5-methanesulfonamidophenyl)-1H-imidazo[4,5-b]pyridin-6-yl]methanesulfonamide]",,> 50000,> 20000,> 25000
"CC(C)S(=O)(=O)Nc1ccc(Cl)c(-c2nc3ncc(NS(=O)(=O)C(C)C)cc3[nH]2)c1 [Example 59, N-{2-[2-chloro-5-(propane-2-sulfonamido)phenyl]-1H-imidazo[4,5-b]pyridin-6-yl}propane-2-sulfonamide]",,> 22800,> 20000,> 25000
"CCOC(=O)Nc1cnc2nc(-c3cc(NC(=O)c4ccc(C#N)o4)ccc3Cl)[nH]c2c1 [Example 61, ethyl N-{2-[2-chloro-5-(5-cyanofuran-2-amido)phenyl]-1H-imidazo[4,5-b]pyridin-6-yl}carbamate]",,3130,> 20000,2690
"O=C(Nc1ccc(Cl)c(-c2nc3ncc(NC(=O)C4CNC4)cc3[nH]2)c1)c1ccco1 [Example 62, N-{2-[2-chloro-5-(furan-2-amido)phenyl]-1H-imidazo[4,5-b]pyridin-6-yl}azetidine-3-carboxamide]",,> 28800,> 20000,> 25000
"NCCC(=O)Nc1cnc2nc(-c3cc(NC(=O)c4ccc(F)o4)ccc3Cl)[nH]c2c1 [Example 73, N-{3-[6-(3-aminopropanamido)-1H-imidazo[4,5-b]pyridin-2-yl]-4-chlorophenyl}-5-fluorofuran-2-carboxamide]",,> 50000,> 20000,> 25000
"Nc1cnc2nc(-c3cccc(NC(=O)c4ccc(F)o4)c3)[nH]c2c1 [Example 79, N-(3-{6-amino-1H-imidazo[4,5-b]pyridin-2-yl}phenyl)-5-fluorofuran-2-carboxamide]",,24500,1460,> 25000

# — patent publication US9186361B2, “Compounds and compositions for the treatment of parasitic diseases” (Novartis AG, priority 2013, dated 2015)
